Laboratory results from patent US20210045385A1, “PYRIDAZINONE-SUBSTITUTED KETOXIMES AS HERBICIDES” (FMC Corporation, priority 2018, published 2021).

Columns and labels:
Type in all cases: in vivo
[1] = tested on: ducksalad (Heteranhera limosa); assay: Test B flooded paddy test, visual plant response rating; details: 250 g ai/ha, Flood, applied to paddy water, 2-leaf stage, evaluated after 13 to 15 days
Procedure, shortened: (§1)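 Seedlings at 2 leaves; compound into paddy water (3 cm flood, maintained); 13–15 d greenhouse; visual score relative to controls.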

rice (Oryza sativa) = assay: as above; details: 250 g ai/ha, Flood, applied to paddy water, 2-leaf stage, evaluated after 13 to 15 days
Procedure, shortened: as §1

[2] = tested on: barnyardgrass (Echinochloa crus-galli); assay: as above; details: 250 g ai/ha, Flood, applied to paddy water, 2-leaf stage, evaluated after 13 to 15 days
Procedure, shortened: as §1

[3] = tested on: sedge, umbrella (small-flower umbrella sedge, Cyperus difformis); assay: as above; details: 250 g ai/ha, Flood, applied to paddy water, 2-leaf stage, evaluated after 13 to 15 days
Procedure, shortened: as §1

kochia (Kochia scoparia) [4] = assay: Test A preemergence, visual plant response rating; details: for Kochia plant response rating: preemergence, 0 to 100 scale, 0 no effect, 100 complete control
Procedure, shortened: (§2)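 Greenhouse pot test in loam–sand soil mix: compound in a surfactant-containing non-phytotoxic solvent applied preemergence (directed soil spray) or postemergence (one- to two-leaf plants, 2–10 cm). Injury scored visually after ~10 days, 0–100.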

[5] = tested on: ragweed (common ragweed, Ambrosia elatior); assay: Test A preemergence, visual plant response rating; details: for Ragweed plant response rating: preemergence, 0 to 100 scale, 0 no effect, 100 complete control
Procedure, shortened: as §2

[6] = tested on: Italian ryegrass (Lolium multiflorum); assay: Test A preemergence, visual plant response rating; details: for Ryegrass, Italian plant response rating: preemergence, 0 to 100 scale, 0 no effect, 100 complete control
Procedure, shortened: as §2

[7] = tested on: pigweed (Amaranthus retroflexus); assay: Test A preemergence, visual plant response rating; details: for Pigweed plant response rating: preemergence, 0 to 100 scale, 0 no effect, 100 complete control
Procedure, shortened: as §2

[8] = tested on: foxtail, giant (giant foxtail, Setaria faberii); assay: Test A preemergence, visual plant response rating; details: for Foxtail, Giant plant response rating: preemergence, 0 to 100 scale, 0 no effect, 100 complete control
Procedure, shortened: as §2

[9] = tested on: barnyardgrass (Echinochloa crus-galli); assay: Test A preemergence, visual plant response rating; details: for Barnyardgrass plant response rating: preemergence, 0 to 100 scale, 0 no effect, 100 complete control
Procedure, shortened: as §2

[10] = tested on: wheat (Triticum aestivum); assay: Test A postemergence, visual plant response rating; details: for Wheat plant response rating: Postemergence, 125 g ai/ha, 0 to 100 scale (0 no effect, 100 complete control)
Procedure, shortened: as §2

[11] = tested on: blackgrass (Alopecurus myosuroides); assay: Test A postemergence, visual plant response rating; details: for Blackgrass plant response rating: Postemergence, 125 g ai/ha, 0 to 100 scale (0 no effect, 100 complete control)
Procedure, shortened: as §2

[12] = tested on: galium (catchweed bedstraw, Galium aparine); assay: Test A postemergence, visual plant response rating; details: for Galium plant response rating: Postemergence, 125 g ai/ha, 0 to 100 scale (0 no effect, 100 complete control)
Procedure, shortened: as §2

corn (Zea mays) = assay: Test A postemergence, visual plant response rating; details: for Corn plant response rating: Postemergence, 125 g ai/ha, 0 to 100 scale (0 no effect, 100 complete control)
Procedure, shortened: as §2

kochia (Kochia scoparia) [13] = assay: Test A postemergence, visual plant response rating; details: for Kochia plant response rating: Postemergence, 125 g ai/ha, 0 to 100 scale (0 no effect, 100 complete control)
Procedure, shortened: as §2

[14] = tested on: ragweed (common ragweed, Ambrosia elatior); assay: Test A postemergence, visual plant response rating; details: for Ragweed plant response rating: Postemergence, 125 g ai/ha, 0 to 100 scale (0 no effect, 100 complete control)
Procedure, shortened: as §2

[15] = tested on: Italian ryegrass (Lolium multiflorum); assay: Test A postemergence, visual plant response rating; details: for Ryegrass, Italian plant response rating: Postemergence, 125 g ai/ha, 0 to 100 scale (0 no effect, 100 complete control)
Procedure, shortened: as §2

[16] = tested on: pigweed (Amaranthus retroflexus); assay: Test A postemergence, visual plant response rating; details: for Pigweed plant response rating: Postemergence, 125 g ai/ha, 0 to 100 scale (0 no effect, 100 complete control)
Procedure, shortened: as §2

[17] = tested on: foxtail, giant (giant foxtail, Setaria faberii); assay: Test A postemergence, visual plant response rating; details: for Foxtail, Giant plant response rating: Postemergence, 125 g ai/ha, 0 to 100 scale (0 no effect, 100 complete control)
Procedure, shortened: as §2

[18] = tested on: barnyardgrass (Echinochloa crus-galli); assay: Test A postemergence, visual plant response rating; details: for Barnyardgrass plant response rating: Postemergence, 125 g ai/ha, 0 to 100 scale (0 no effect, 100 complete control)
Procedure, shortened: as §2

[19] = 500 g ai/ha Preemergence, approx. 10 days
[20] = 500 g ai/ha, postemergence, 0 is no effect, 100 is complete control
[21] = 31 g ai/ha Postemergence, approx. 10 days

Row | Compound | Plant response rating, Ducksalad (0 to 100 scale, 0 is no effect, 100 is complete control) [1] | Plant response rating, Rice (0 to 100 scale, 0 is no effect, 100 is complete control) (rice (Oryza sativa)) | Plant response rating, Barnyardgrass (0 to 100 scale, 0 is no effect, 100 is complete control) [2] | Plant response rating, Sedge, Umbrella (0 to 100 scale, 0 is no effect, 100 is complete control) [3] | Kochia plant response rating (kochia (Kochia scoparia) [4]; 125 g ai/ha) | Ragweed plant response rating ([5]; 125 g ai/ha) | Ryegrass, Italian plant response rating ([6]; 125 g ai/ha) | Pigweed plant response rating ([7]; 125 g ai/ha) | Foxtail, Giant plant response rating ([8]; 125 g ai/ha) | Barnyardgrass plant response rating ([9]; 125 g ai/ha) | Wheat plant response rating [10] | Blackgrass plant response rating [11] | Galium plant response rating [12] | Corn plant response rating (corn (Zea mays)) | Kochia plant response rating (kochia (Kochia scoparia) [13]) | Ragweed plant response rating [14] | Ryegrass, Italian plant response rating [15] | Pigweed plant response rating [16] | Foxtail, Giant plant response rating [17] | Barnyardgrass plant response rating [18] | also measured
1 | CON=C(c1c(O)c(C)nn(C)c1=O)c1cccc2cc(F)ccc12 [Compound 119] | 0 | 0 | 0 | 0 | 30 | 90 | 30 | 80 | 80 | 50 | 0 | 80 | 80 | 10 | 70 | 90 | 80 | 80 | 70 | 70 | Kochia plant response rating (0 to 100 scale) (kochia (Kochia scoparia) [4]; [19]): 80; Ragweed plant response rating (0 to 100 scale) [5, 19]: 90; Ryegrass, Italian plant response rating (0 to 100 scale) [6, 19]: 100; Pigweed plant response rating (0 to 100 scale) [7, 19]: 100; Foxtail, Giant plant response rating (0 to 100 scale) [8, 19]: 100; Barnyardgrass plant response rating (0 to 100 scale) [9, 19]: 80; Wheat plant response rating (0 to 100 scale) [10, 20]: 0; Blackgrass plant response rating (0 to 100 scale) [11, 20]: 90; Galium plant response rating (0 to 100 scale) [12, 20]: 100; Corn plant response rating (0 to 100 scale) (corn (Zea mays); [20]): 40; Kochia plant response rating (0 to 100 scale) (kochia (Kochia scoparia) [13]; [20]): 70; Ragweed plant response rating (0 to 100 scale) [14, 20]: 90; Ryegrass, Italian plant response rating (0 to 100 scale) [15, 20]: 90; Pigweed plant response rating (0 to 100 scale) [16, 20]: 90; Foxtail, Giant plant response rating (0 to 100 scale) [17, 20]: 80; Barnyardgrass plant response rating (0 to 100 scale) [18, 20]: 80
2 | CON=C(c1c(OC(C)=O)c(C)nn(C)c1=O)c1cccc2ccccc12 [Compound 120] | 0 | 0 | 0 | 0 | 10 | 10 | 10 | 100 | 50 | 10 | 0 | 20 | 80 | 0 | 30 | 20 | 30 | 50 | 40 | 20 | Kochia plant response rating (kochia (Kochia scoparia) [4]; 31 g ai/ha): 0; Ragweed plant response rating ([5]; 31 g ai/ha): 0; Ryegrass, Italian plant response rating ([6]; 31 g ai/ha): 0; Pigweed plant response rating ([7]; 31 g ai/ha): 60; Foxtail, Giant plant response rating ([8]; 31 g ai/ha): 20; Barnyardgrass plant response rating ([9]; 31 g ai/ha): 0; Wheat plant response rating (0 to 100 scale) [10, 21]: 0; Blackgrass plant response rating (0 to 100 scale) [11, 21]: 0; Galium plant response rating (0 to 100 scale) [12, 21]: 40; Corn plant response rating (0 to 100 scale) (corn (Zea mays); [21]): 0; Kochia plant response rating (0 to 100 scale) (kochia (Kochia scoparia) [13]; [21]): 10; Ragweed plant response rating (0 to 100 scale) [14, 21]: 0; Ryegrass, Italian plant response rating (0 to 100 scale) [15, 21]: 0; Pigweed plant response rating (0 to 100 scale) [16, 21]: 30; Foxtail, Giant plant response rating (0 to 100 scale) [17, 21]: 0; Barnyardgrass plant response rating (0 to 100 scale) [18, 21]: 0
